Data: PMC3265452 (PLoS Neglected Tropical Diseases, 2012)
Counter-ions that a name gives are not always drawn. Residues, ends and D or L forms follow the SMILES beside them. *: point of attachment. Cbz = O=C(OCc1ccccc1)*

Each compound was assayed against AaDOP2 (Aedes aegypti, UniProt H6D5H2) (assay: AaDOP2 antagonist screen of the LOPAC1280 library (HEK-CRELuc-Aadop2 cells, luminescence)). Settings: not given.
Type: cell-based

AaDOP2, sequence (H6D5H2 1-476): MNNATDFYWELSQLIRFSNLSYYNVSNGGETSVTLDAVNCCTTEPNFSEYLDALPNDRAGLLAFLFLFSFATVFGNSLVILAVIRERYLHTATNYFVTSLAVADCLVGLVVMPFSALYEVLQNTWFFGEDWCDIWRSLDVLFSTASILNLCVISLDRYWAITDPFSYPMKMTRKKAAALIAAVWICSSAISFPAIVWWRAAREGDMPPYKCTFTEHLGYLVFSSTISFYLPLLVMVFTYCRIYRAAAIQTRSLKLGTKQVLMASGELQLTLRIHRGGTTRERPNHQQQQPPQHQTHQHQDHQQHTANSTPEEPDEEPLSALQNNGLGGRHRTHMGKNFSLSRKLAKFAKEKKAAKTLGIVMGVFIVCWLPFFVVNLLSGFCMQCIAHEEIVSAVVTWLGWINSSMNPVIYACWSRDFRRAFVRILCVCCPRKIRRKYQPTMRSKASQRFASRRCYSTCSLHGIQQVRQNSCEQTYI

Row | SMILES | Compound effect (percent receptor signaling in presence of test compound, relative lux units relative to the SCH23390 control)
1 | Cc1[nH]c(=O)c(C#N)cc1-c1ccncc1 [Compound 770, Milrinone] | 104
2 | Cl.Cl.Cn1cnc(CCN)c1 [Compound 772, 1-Methylhistamine dihydrochloride] | 94
3 | CC(=O)Oc1cc(C(C)C)c(OCCN(C)C)cc1C [Compound 773, Moxisylyte hydrochloride] | 33
4 | CSC(N)=NCCC[C@H](N)C(=O)O [Compound 774, S-Methyl-L-thiocitrulline acetate] | 97
5 | COc1ccc2[nH]cc(CCNC(C)=O)c2c1 [Compound 775, Melatonin] | 104
6 | Cc1cccc(C#Cc2ccccc2)n1.Cl [Compound 778, 6-Methyl-2-(phenylethynyl)pyridine hydrochloride] | 74
7 | COCC(=O)O[C@]1(CCN(C)CCCc2nc3ccccc3[nH]2)CCc2cc(F)ccc2[C@@H]1C(C)C [Compound 779, Mibefradil dihydrochloride] | 93
8 | CNc1ncnc2c1ncn2[C@@H]1O[C@H](CO)[C@@H](O)[C@H]1O [Compound 780, N6-Methyladenosine] | 80
9 | Cc1ccccc1/C=C/C1=NCCN1 [Compound 783, Metrazoline oxalate] | 91
10 | CCCn1c(=O)c2[nH]c(-c3ccc(OCC(=O)Nc4ccc(C#N)cc4)cc3)nc2n(CCC)c1=O [Compound 785, MRS 1754] | 98
11 | COc1cc2c(cc1O)CC[C@@H]1[C@@H]2CC[C@]2(C)[C@@H](O)CC[C@@H]12 [Compound 786, 2-methoxyestradiol] | 99
12 | Nc1ncnc2c1ncn2[C@@H]1O[C@H](COP(=O)(O)CP(=O)(O)OP(=O)([O-])[O-])[C@H](O)C1O.[Li+].[Li+] (stereo partly drawn) [Compound 788, alpha,beta-Methylene adenosine 5'-triphosphate dilithium] | 97
13 | COc1ccc(OC)c(C(O)C(C)N)c1 (stereo not shown) [Compound 789, Methoxamine hydrochloride] | 92
14 | O=C1c2c(O)ccc(O)c2C(=O)c2c(NCCNCCO)ccc(NCCNCCO)c21 [Compound 790, Mitoxantrone] | 18
15 | COc1ccc2[nH]cc(CCN)c2c1.Cl [Compound 791, O-Methylserotonin hydrochloride] | 118
16 | C[Se]C[C@H](N)C(=O)O.Cl [Compound 792, Se-(methyl)selenocysteine hydrochloride] | 129
17 | CC(C)[C@H](NC(=O)OCc1ccccc1)C(=O)N[C@H](C=O)Cc1ccccc1 [Compound 793, MDL 28170] (Cbz-Val-Phe-aldehyde) | 96
18 | [H]/N=C(/NC)NCCC[C@H](N)C(=O)O [Compound 795, NG-Monomethyl-L-arginine acetate] | 94
19 | CN1CC[C@]2(CCN3CCc4c(oc5ccccc45)[C@@H]3C2)N(C)C1=O [Compound 796, MK-912] | 73
20 | Cc1nc(N=Nc2ccc(C(=O)O)cc2)c(COP(=O)(O)O)c(C=O)c1O [Compound 798, MRS 2159] | 91
21 | NC(=O)COc1c(F)cc(SCCNS(=O)(=O)c2ccccc2)cc1F [Compound 800, 2,6-Difluoro-4-[2-(phenylsulfonylamino)ethylthio]phenoxyacetamide] | 89
22 | CC#C[C@]1(O)CC[C@H]2[C@@H]3CCC4=CC(=O)CCC4=C3[C@@H](c3ccc(N(C)C)cc3)C[C@@]21C [Compound 801, Mifepristone] | 94

Row | SMILES | Compound effect (percent receptor signaling in presence of test compound, relative lux units relative to the SCH23390 control)
23 | C[C@](N)(Cc1ccc(O)cc1)C(=O)O [Compound 802, L-alpha-Methyl-p-tyrosine] | 100
24 | CCOC(=O)C1=C(C)NC(=S)NC1c1cccc(O)c1 (stereo not shown) [Compound 803, Monastrol] | 103
25 | Cn1ccnc1 [Compound 804, 1-Methylimidazole] | 100
26 | CNC1(C)C2CCC(C2)C1(C)C (stereo not shown) [Compound 805, Mecamylamine hydrochloride] | 114
27 | CC12CC3CC(C)(C1)CC(N)(C3)C2 [Compound 807, Memantine hydrochloride] | 91
28 | CN(N=O)c1ccc(O)c(O)c1 [Compound 808, Me-3,4-dephostatin] | 101
29 | CN(C)c1ccc(O)c2c1C[C@H]1C[C@H]3[C@H](N(C)C)C(O)=C(C(N)=O)C(=O)[C@@]3(O)C(O)=C1C2=O [Compound 809, Minocycline hydrochloride] | 94
30 | CCCN(CCC)C(=O)C(CCC(=O)O)NC(=O)c1ccccc1 (stereo not shown) [Compound 812, Proglumide] | 97
31 | COc1ccccc1CNCCCCCCNCCCCCCCCNCCCCCCNCc1ccccc1OC [Compound 815, Methoctramine tetrahydrochloride] | 66
32 | C[C@@]12N[C@@H](Cc3ccccc31)c1ccccc12.O=C(O)/C=C\C(=O)O [Compound 817, (-)-MK-801 hydrogen maleate] | 98
33 | Cc1[nH]c2ccc(O)cc2c1CCN.O=C(O)/C=C\C(=O)O [Compound 818, 2-Methyl-5-hydroxytryptamine maleate] | 102
34 | CC(N)Cc1c[nH]c2ccc(O)cc12.O=C(O)/C=C\C(=O)O (stereo not drawn) [Compound 819, alpha-Methyl-5-hydroxytryptamine maleate] | 92
35 | Cc1ccccc1N1C(=O)c2cc(S(N)(=O)=O)c(Cl)cc2NC1C (stereo not shown) [Compound 820, Metolazone] | 90
36 | S=C=Nc1cccc(C2(N3CCCCC3)CCCCC2)c1 [Compound 821, Metaphit methanesulfonate] | 93
37 | CC[C@@H](CO)NC(=O)[C@@H]1C=C2c3cccc4c3c(cn4C)C[C@H]2N(C)C1 [Compound 823, Methysergide maleate] | 82
38 | CNC(=O)OCC[N+](C)(C)C [Compound 824, Methylcarbamylcholine chloride] | 103
39 | CSc1ccc2c(c1)C(N1CCN(C)CC1)Cc1ccccc1S2 (stereo not shown) [Compound 825, Methiothepin mesylate] | 1
40 | CN1C[C@@H](NS(=O)(=O)N(C)C)C[C@@H]2c3cccc4c3c(cn4C)C[C@H]21 [Compound 827, Mesulergine hydrochloride] | 88
41 | Cl.N=c1c[n+](N2CCOCC2)[n-]o1 [Compound 830, 3-Morpholinosydnonimine hydrochloride] | 90
42 | COc1ccc2c(c1)[C@@]13CCCC[C@H]1[C@@H](C2)NCC3.Cl [Compound 831, 3-Methoxy-morphanin hydrochloride] | 94
43 | O=C(O)/C(=C/c1c(C(=O)O)[nH]c2cc(Cl)cc(Cl)c12)c1ccccc1 [Compound 833, MDL 105,519] | 83

Same assay, conditions: 10 µM compound, 300 nM dopamine, 2 hr; hit = compound effect <20

Row | SMILES | Compound effect (percent receptor signaling in presence of test compound, relative lux units relative to the SCH23390 control) [%]
44 | C[C@](N)(CCP(=O)(O)O)C(=O)O.Cl [Compound 781, (S)-MAP4 hydrochloride] | 100
45 | Cl.NCCS [Compound 787, Cysteamine hydrochloride] | 94
46 | COc1ccc(NC(=O)c2ccc(-c3ccc(-c4noc(C)n4)cc3C)cc2)cc1N1CCN(C)CC1.Cl [Compound 799, GR 127935 hydrochloride] | 90
47 | CNCCNS(=O)(=O)c1cccc2cnccc12.Cl.Cl [Compound 811, H-8 dihydrochloride] | 43
48 | C[C@](N)(Cc1ccc(O)c(O)c1)C(=O)O [Compound 822, L-alpha-Methyl DOPA] | 98
49 | CC(C)N(CCC(=O)c1ccc2ccccc2c1)Cc1ccccc1.Cl [Compound 829, ZM 39923 hydrochloride] | 83
50 | COc1ccccc1N1CCN(CCN(C(=O)c2ccc(I)cc2)c2ccccn2)CC1.Cl [Compound 832, p-MPPI hydrochloride] | 73

Same assay, conditions: read-out: % of the SCH23390 effect (percent inhibition of receptor response relative to the SCH23390 control)

Row | SMILES | inhibition at 10 µM [%]
51 | O=C1c2c(O)ccc(O)c2C(=O)c2c(NCCNCCO)ccc(NCCNCCO)c21 [Compound 790, Mitoxantrone] | 83
52 | CSc1ccc2c(c1)C(N1CCN(C)CC1)Cc1ccccc1S2 (stereo not shown) [Compound 825, Methiothepin mesylate] | 99
